Source: patent US20260193264A1, “BENZOYPARAZINE PYRAZINES AND THEIR USES” (FOGHORN THERAPEUTICS INC., priority 2022, published 2026)

How the values were obtained:
[1] = target: T1, HiBit-BRG1 fusion protein in stable HeLa cell line expressing HiBit-BRG1 and LgBit (Homo sapiens, UniProt P51532); assay: HiBiT-BRG1 cell-based degradation assay (Nano-Glo HiBiT, 24 h); conditions: HeLa HiBit-BRG1/LgBit cells; for Dmax: top dose 30 μM, read-out: BRG1 HiBit Degradation Maximum (%); for DC50: read-out: BRMG1 HiBit Degradation IC50
T1 construct: expressed in transfected cells
Summary of the method: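 Stable HeLa line co-expressing HiBiT-BRG1 and LgBiT, compound-treated 24 h; luminescence read after Nano-Glo HiBiT lytic reagent. % degradation normalised between DMSO (high control) and 2 μM reference BRM/BRG1 degrader (low control).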

[2] = target: T2, HiBiT-BRM fusion protein in stable HeLa cell line (Homo sapiens, UniProt P51531); assay: HiBiT-BRM cell-based degradation assay (Nano-Glo HiBiT Lytic Detection, 24 h); design: DC50: scale not given here; conditions: HeLa HiBiT-BRM cells; for DC50: read-out: BRM HiBit Degradation IC50; for BRM HiBit Degradation Maximum (%): top dose 30 μM
T2 construct: expressed in transfected cells
Summary of the method: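 Luminescence from HiBiT/LgBiT complementation after lysis reports remaining HiBiT-BRM in stable HeLa cells exposed to compound for 24 h. Dosing used 3-fold serial dilutions, 10 points, 30 μM top final concentration. DMSO and a 2 μM BRM/BRG1 degrader standard defined 0% and 100% degradation.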

T2 sequence (P51531 whole entry, the tested form may be a part): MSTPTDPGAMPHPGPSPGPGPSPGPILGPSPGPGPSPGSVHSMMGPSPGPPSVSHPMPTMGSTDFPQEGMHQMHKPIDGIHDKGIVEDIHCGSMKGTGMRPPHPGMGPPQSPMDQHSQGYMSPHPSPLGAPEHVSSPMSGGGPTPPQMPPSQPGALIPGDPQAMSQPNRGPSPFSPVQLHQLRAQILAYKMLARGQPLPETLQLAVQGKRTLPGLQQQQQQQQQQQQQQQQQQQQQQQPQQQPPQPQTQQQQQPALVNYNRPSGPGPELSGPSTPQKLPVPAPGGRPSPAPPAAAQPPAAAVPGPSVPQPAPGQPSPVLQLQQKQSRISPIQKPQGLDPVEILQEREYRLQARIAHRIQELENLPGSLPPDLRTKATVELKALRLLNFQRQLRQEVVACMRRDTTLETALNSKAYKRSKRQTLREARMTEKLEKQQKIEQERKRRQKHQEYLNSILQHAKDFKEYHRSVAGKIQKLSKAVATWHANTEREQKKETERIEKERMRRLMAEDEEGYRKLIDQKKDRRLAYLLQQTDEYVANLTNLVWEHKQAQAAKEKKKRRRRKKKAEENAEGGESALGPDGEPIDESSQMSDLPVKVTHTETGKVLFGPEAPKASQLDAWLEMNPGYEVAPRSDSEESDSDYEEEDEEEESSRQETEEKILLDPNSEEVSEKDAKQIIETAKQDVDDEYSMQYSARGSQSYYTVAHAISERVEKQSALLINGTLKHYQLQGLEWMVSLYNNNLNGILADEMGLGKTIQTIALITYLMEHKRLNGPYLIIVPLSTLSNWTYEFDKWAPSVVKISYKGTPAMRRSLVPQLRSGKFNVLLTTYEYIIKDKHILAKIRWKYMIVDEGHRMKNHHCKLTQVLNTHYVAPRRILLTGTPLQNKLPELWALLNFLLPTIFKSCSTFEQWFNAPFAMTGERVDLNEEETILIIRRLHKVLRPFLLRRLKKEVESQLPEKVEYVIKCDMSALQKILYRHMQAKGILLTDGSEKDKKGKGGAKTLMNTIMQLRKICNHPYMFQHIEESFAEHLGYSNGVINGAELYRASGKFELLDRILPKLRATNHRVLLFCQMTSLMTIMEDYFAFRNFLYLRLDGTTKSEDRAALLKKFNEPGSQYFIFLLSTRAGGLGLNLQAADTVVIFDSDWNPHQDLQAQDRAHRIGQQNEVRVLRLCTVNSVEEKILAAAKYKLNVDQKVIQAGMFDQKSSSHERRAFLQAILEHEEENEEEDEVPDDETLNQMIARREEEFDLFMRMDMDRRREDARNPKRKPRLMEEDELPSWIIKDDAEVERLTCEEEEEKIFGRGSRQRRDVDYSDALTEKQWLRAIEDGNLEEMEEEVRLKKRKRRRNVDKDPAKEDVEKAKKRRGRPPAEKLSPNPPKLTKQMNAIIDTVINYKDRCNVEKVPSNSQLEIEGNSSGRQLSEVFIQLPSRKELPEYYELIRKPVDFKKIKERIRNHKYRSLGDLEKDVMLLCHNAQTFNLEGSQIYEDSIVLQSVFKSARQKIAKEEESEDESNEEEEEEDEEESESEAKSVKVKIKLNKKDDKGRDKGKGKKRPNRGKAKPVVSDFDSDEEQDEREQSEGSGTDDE
T1 sequence (P51532 whole entry, the tested form may be a part): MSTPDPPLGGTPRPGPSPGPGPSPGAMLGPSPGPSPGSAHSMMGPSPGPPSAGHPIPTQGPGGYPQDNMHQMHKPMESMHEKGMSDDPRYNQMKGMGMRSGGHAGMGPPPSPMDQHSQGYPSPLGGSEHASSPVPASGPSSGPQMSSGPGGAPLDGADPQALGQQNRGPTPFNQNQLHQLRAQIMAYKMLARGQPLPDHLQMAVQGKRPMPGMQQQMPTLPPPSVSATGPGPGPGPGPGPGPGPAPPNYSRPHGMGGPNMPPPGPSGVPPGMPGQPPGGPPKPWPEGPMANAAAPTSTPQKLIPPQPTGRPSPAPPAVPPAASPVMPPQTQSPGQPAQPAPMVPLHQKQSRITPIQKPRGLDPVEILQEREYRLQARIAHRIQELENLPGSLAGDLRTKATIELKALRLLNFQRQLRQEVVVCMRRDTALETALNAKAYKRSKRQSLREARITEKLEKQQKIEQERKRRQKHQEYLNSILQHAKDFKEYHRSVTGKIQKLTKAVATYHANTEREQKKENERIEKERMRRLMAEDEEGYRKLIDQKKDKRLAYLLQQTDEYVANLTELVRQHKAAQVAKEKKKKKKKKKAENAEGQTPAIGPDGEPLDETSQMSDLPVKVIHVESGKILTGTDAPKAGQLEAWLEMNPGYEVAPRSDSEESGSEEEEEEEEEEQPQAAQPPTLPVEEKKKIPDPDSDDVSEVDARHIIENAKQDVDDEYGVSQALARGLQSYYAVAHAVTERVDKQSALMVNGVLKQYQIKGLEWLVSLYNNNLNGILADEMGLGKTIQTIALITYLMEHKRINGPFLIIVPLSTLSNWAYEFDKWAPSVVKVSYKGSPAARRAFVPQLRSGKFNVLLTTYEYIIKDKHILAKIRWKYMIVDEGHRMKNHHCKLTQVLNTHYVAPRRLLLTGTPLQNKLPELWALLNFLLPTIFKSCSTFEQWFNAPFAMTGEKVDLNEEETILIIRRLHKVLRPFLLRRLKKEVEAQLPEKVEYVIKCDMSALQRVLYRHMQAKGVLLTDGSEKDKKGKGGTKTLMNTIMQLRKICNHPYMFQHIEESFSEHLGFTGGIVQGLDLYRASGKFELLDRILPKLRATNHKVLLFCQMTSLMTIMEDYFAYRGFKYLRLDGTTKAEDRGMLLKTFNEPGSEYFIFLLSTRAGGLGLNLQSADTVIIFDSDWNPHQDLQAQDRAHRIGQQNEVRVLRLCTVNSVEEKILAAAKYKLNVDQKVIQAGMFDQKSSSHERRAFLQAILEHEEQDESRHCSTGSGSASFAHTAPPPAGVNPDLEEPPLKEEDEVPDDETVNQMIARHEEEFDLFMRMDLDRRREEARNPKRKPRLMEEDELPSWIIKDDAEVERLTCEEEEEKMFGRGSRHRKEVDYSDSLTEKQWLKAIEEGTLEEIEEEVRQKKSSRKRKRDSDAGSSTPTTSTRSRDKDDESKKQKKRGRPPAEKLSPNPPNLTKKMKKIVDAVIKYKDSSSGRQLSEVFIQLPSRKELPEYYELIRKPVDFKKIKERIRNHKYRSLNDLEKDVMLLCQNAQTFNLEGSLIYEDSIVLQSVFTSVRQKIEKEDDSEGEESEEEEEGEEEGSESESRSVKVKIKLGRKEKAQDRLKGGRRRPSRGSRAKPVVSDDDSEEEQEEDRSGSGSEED

Row | SMILES | Dmax [1] [%] | DC50 [2] [nM] | BRM HiBit Degradation Maximum (%) [2] | DC50 [1] [nM]
1 | Cc1ncsc1-c1ccc([C@H](C)NC(=O)[C@@H]2C[C@@H](O)CN2C(=O)[C@@H](c2cc(N3CCC[C@@H](c4ccc5nnc(-c6ccccc6O)cc5c4)C3)no2)C(C)C)cc1 [Compound 101, (2S,4R)-4-hydroxy-1-((R)-2-(3-((S)-3-(3-(2-hydroxyphenyl)cinnolin-6-yl)piperidin-1-yl)isoxazol-5-yl)-3-methylbutanoyl)-N-((S)-1-(4-(4-methylthiazol-5-yl)phenyl)ethyl)pyrrolidine-2-carboxamide] | < 50 | > 10 | A (“A” indicates maximum degradation ≥75%) | 
2 | Cc1ncsc1-c1ccc([C@H](C)NC(=O)[C@@H]2C[C@@H](O)CN2C(=O)[C@@H](c2cc(N3CC4(CCN4c4ccc5nnc(-c6ccccc6O)cc5c4)C3)no2)C(C)C)cc1 [Compound 102, (2S,4R)-4-hydroxy-1-((R)-2-(3-(1-(3-(2-hydroxyphenyl)cinnolin-6-yl)-1,6-diazaspiro[3.3]heptan-6-yl)isoxazol-5-yl)-3-methylbutanoyl)-N-((S)-1-(4-(4-methylthiazol-5-yl)phenyl)ethyl)pyrrolidine-2-carboxamide] | < 50 | < 10 | A (“A” indicates maximum degradation ≥75%) | 
3 | Cc1ncsc1-c1ccc([C@H](C)NC(=O)[C@@H]2C[C@@H](O)CN2C(=O)[C@@H](c2cc(N3CCC4(CC3)CCN(c3ccc5cc(-c6ccccc6O)nnc5c3)C(=O)C4)no2)C(C)C)cc1 [Compound 103, (2S,4R)-4-hydroxy-1-((R)-2-(3-(9-(3-(2-hydroxyphenyl)cinnolin-7-yl)-8-oxo-3,9-diazaspiro[5.5]undecan-3-yl)isoxazol-5-yl)-3-methylbutanoyl)-N-((S)-1-(4-(4-methylthiazol-5-yl)phenyl)ethyl)pyrrolidine-2-carboxamide] | < 50 | < 10 | A (“A” indicates maximum degradation ≥75%) | 
4 | Cc1ncsc1-c1ccc([C@H](C)NC(=O)[C@@H]2C[C@@H](O)CN2C(=O)[C@@H](c2cc(N3CCC4(CC3)CCN(c3ccc5cc(-c6ccccc6O)nnc5c3)C4=O)no2)C(C)C)cc1 [Compound 104, (2S,4R)-4-hydroxy-1-((R)-2-(3-(2-(3-(2-hydroxyphenyl)cinnolin-7-yl)-1-oxo-2,8-diazaspiro[4.5]decan-8-yl)isoxazol-5-yl)-3-methylbutanoyl)-N-((S)-1-(4-(4-methylthiazol-5-yl)phenyl)ethyl)pyrrolidine-2-carboxamide] | < 50 | < 10 | A (“A” indicates maximum degradation ≥75%) | 
5 | Cc1ncsc1-c1ccc([C@H](C)NC(=O)[C@@H]2C[C@@H](O)CN2C(=O)[C@@H](c2cc(N3CC4(CCN(c5ccc6cc(-c7ccccc7O)nnc6c5)CC4(F)F)C3)no2)C(C)C)cc1 [Compound 105, (2S,4R)-1-((R)-2-(3-(5,5-difluoro-7-(3-(2-hydroxyphenyl)cinnolin-7-yl)-2,7-diazaspiro[3.5]nonan-2-yl)isoxazol-5-yl)-3-methylbutanoyl)-4-hydroxy-N-((S)-1-(4-(4-methylthiazol-5-yl)phenyl)ethyl)pyrrolidine-2-carboxamide] | > 75 | < 10 | A (“A” indicates maximum degradation ≥75%) | < 10
6 | Cc1ncsc1-c1ccc([C@H](C)NC(=O)[C@@H]2C[C@@H](O)CN2C(=O)[C@@H](c2cc(N3CCC4(CCN(c5ccc6cc(-c7ccccc7O)nnc6c5)CC4)CC3)no2)C(C)C)cc1 [Compound 106, (2S,4R)-4-hydroxy-1-((R)-2-(3-(9-(3-(2-hydroxyphenyl)cinnolin-7-yl)-3,9-diazaspiro [5.5]undecan-3-yl)isoxazol-5-yl)-3-methylbutanoyl)-N-((S)-1-(4-(4-methylthiazol-5-yl)phenyl)ethyl)pyrrolidine-2-carboxamide] | > 75 | < 10 | A (“A” indicates maximum degradation ≥75%) | < 10
7 | Cc1ncsc1-c1ccc([C@H](C)NC(=O)[C@@H]2C[C@@H](O)CN2C(=O)[C@@H](c2cc(N3CCN([C@@H]4CCN(c5ccc6cc(-c7ccccc7O)nnc6c5)CC4(F)F)CC3)no2)C(C)C)cc1 [Compound 107, (2S,4R)-1-((R)-2-(3-(4-((R)-3,3-difluoro-1-(3-(2-hydroxyphenyl)cinnolin-7-yl)piperidin-4-yl)piperazin-1-yl)isoxazol-5-yl)-3-methylbutanoyl)-4-hydroxy-N-((S)-1-(4-(4-methylthiazol-5-yl)phenyl)ethyl)pyrrolidine-2-carboxamide] | > 75 | < 10 | A (“A” indicates maximum degradation ≥75%) | < 10
8 | Cc1ncsc1-c1ccc([C@H](C)NC(=O)[C@@H]2C[C@@H](O)CN2C(=O)C(c2cc(N3CCC4(CN(c5ccc6cc(-c7ccccc7O)nnc6c5)C4)C(F)(F)C3)no2)C(C)C)cc1 (stereo partly drawn) [Compound 108, (2S,4R)-1-(2-(3-(5,5-difluoro-2-(3-(2-hydroxyphenyl)cinnolin-7-yl)-2,7-diazaspiro [3.5]nonan-7-yl)isoxazol-5-yl)-3-methylbutanoyl)-4-hydroxy-N-((S)-1-(4-(4-methylthiazol-5-yl)phenyl)ethyl)pyrrolidine-2-carboxamide] | > 75 | < 10 | A (“A” indicates maximum degradation ≥75%) | > 10
9 | CC(C)[C@@H](C(=O)N1C[C@H](O)C[C@H]1C(=O)N[C@@H](C)c1ccc(Br)cc1)c1cc(N2CC3(CN(c4ccc5cc(-c6ccccc6O)nnc5c4)C3)C2)no1 [Compound 109, (2S,4R)-N-((S)-1-(4-bromophenyl)ethyl)-4-hydroxy-1-((R)-2-(3-(6-(3-(2-hydroxyphenyl)cinnolin-7-yl)-2,6-diazaspiro[3.3]heptan-2-yl)isoxazol-5-yl)-3-methylbutanoyl)pyrrolidine-2-carboxamide] | < 50 | < 10 | A (“A” indicates maximum degradation ≥75%) | 
10 | CC(C)[C@@H](C(=O)N1C[C@H](O)C[C@H]1C(=O)N[C@@H](C)c1ccccc1F)c1cc(N2CC3(CN(c4ccc5cc(-c6ccccc6O)nnc5c4)C3)C2)no1 [Compound 110, (2S,4R)-N-((S)-1-(2-fluorophenyl)ethyl)-4-hydroxy-1-((R)-2-(3-(6-(3-(2-hydroxyphenyl)cinnolin-7-yl)-2,6-diazaspiro[3.3]heptan-2-yl)isoxazol-5-yl)-3-methylbutanoyl)pyrrolidine-2-carboxamide] | < 50 | < 10 | A (“A” indicates maximum degradation ≥75%) | 
11 | CC(C)[C@@H](C(=O)N1C[C@H](O)C[C@H]1C(=O)NCc1ccccc1)c1cc(N2CC3(CN(c4ccc5cc(-c6ccccc6O)nnc5c4)C3)C2)no1 [Compound 111, (2S,4R)-N-benzyl-4-hydroxy-1-((R)-2-(3-(6-(3-(2-hydroxyphenyl)cinnolin-7-yl)-2,6-diazaspiro[3.3]heptan-2-yl)isoxazol-5-yl)-3-methylbutanoyl)pyrrolidine-2-carboxamide] | < 50 | < 10 | A (“A” indicates maximum degradation ≥75%) | 
12 | CC(C)C(C(=O)N1C[C@H](O)C[C@H]1C(=O)N[C@@H](C)c1ccc(C#N)cc1)c1cc(N2CC3(CN(c4ccc5cc(-c6ccccc6O)nnc5c4)C3)C2)no1 (stereo partly drawn) [Compound 112, (2S,4R)-N-((S)-1-(4-cyanophenyl)ethyl)-4-hydroxy-1-(2-(3-(6-(3-(2-hydroxyphenyl)cinnolin-7-yl)-2,6-diazaspiro[3.3]heptan-2-yl)isoxazol-5-yl)-3-methylbutanoyl)pyrrolidine-2-carboxamide] | > 50 | < 10 | A (“A” indicates maximum degradation ≥75%) | > 10
13 | CC(C)C(C(=O)N1C[C@H](O)C[C@H]1C(=O)N[C@@H](C)c1ccc(Cl)cc1)c1cc(N2CC3(CN(c4ccc5cc(-c6ccccc6O)nnc5c4)C3)C2)no1 (stereo partly drawn) [Compound 113, (2S,4R)-N-((S)-1-(4-chlorophenyl)ethyl)-4-hydroxy-1-(2-(3-(6-(3-(2-hydroxyphenyl)cinnolin-7-yl)-2,6-diazaspiro[3.3]heptan-2-yl)isoxazol-5-yl)-3-methylbutanoyl)pyrrolidine-2-carboxamide] | < 50 | < 10 | A (“A” indicates maximum degradation ≥75%) | 
14 | CNC(=O)[C@@H]1C[C@@H](O)CN1C(=O)C(c1cc(N2CC3(CN(c4ccc5cc(-c6ccccc6O)nnc5c4)C3)C2)no1)C(C)C (stereo partly drawn) [Compound 114, (2S,4R)-4-hydroxy-1-(2-(3-(6-(3-(2-hydroxyphenyl)cinnolin-7-yl)-2,6-diazaspiro[3.3]heptan-2-yl)isoxazol-5-yl)-3-methylbutanoyl)-N-methylpyrrolidine-2-carboxamide] | < 50 | < 10 | A (“A” indicates maximum degradation ≥75%) | 
15 | Cc1ncsc1-c1ccc([C@H](C)NC(=O)[C@@H]2C[C@@H](O)CN2C(=O)[C@@H](c2cc(N3CCN([C@H]4CCN(c5ccc6cc(-c7ccccc7O)nnc6c5)CC4(F)F)CC3)no2)C(C)C)cc1 [Compound 115, (2S,4R)-1-((R)-2-(3-(4-((S)-3,3-difluoro-1-(3-(2-hydroxyphenyl)cinnolin-7-yl)piperidin-4-yl)piperazin-1-yl)isoxazol-5-yl)-3-methylbutanoyl)-4-hydroxy-N-((S)-1-(4-(4-methylthiazol-5-yl)phenyl)ethyl)pyrrolidine-2-carboxamide] | > 75 | < 10 | A (“A” indicates maximum degradation ≥75%) | < 10
